Test results reported in publication PMC10095345, “The Role of Tyr-His-Trp Triad and Water Molecule Near the N1-Atom of 2-Hydroperoxycoelenterazine in Bioluminescence of Hydromedusan Photoproteins: Structural and Mutagenesis Study” (International Journal of Molecular Sciences, 2023).

Tests used:
obelin (OL_wt) = target: T1, obelin (OL_wt) (Obelia longissima, UniProt Q27709); assay: Ca2+-triggered bioluminescence of charged photoprotein, luminometer; format: biochemical; settings: 2 mM CaCl2, 50 mM Tris-HCl pH 8.5, 23 C; bound as 2-hydroperoxycoelenterazine
T1 construct: full-length apo-obelin from pET19-OL8 in E. coli BL21-Gold (DE3) Codon Plus (RIPL), charged with coelenterazine; 195 residues
T1 sequence (Q27709 whole entry): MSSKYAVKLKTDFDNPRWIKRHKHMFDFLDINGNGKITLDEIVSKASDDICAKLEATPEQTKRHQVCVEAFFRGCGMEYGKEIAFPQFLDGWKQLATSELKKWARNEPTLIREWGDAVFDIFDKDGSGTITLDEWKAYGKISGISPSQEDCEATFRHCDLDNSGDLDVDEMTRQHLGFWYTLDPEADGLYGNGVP

aequorin (AV_wt) = target: T2, aequorin (AV_wt) (Aequorea victoria, UniProt P07164); assay: as above; format: biochemical; settings: 2 mM CaCl2, 50 mM Tris-HCl pH 8.5, 23 C; bound as 2-hydroperoxycoelenterazine
T2 construct: apo-aequorin with N-terminus truncated by six residues, from pET22-A7 in E. coli BL21-Gold (DE3) Codon Plus (RIPL), charged with coelenterazine
T2 sequence (P07164 7-196 limits assumed): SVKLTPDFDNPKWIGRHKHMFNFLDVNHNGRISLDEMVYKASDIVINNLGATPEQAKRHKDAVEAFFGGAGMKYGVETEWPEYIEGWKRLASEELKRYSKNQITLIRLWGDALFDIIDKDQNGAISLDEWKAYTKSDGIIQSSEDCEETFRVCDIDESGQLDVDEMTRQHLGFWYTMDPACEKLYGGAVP

Oc1ccc(Cc2nc3c(Cc4ccccc4)nc(-c4ccc(O)cc4)cn3c2O)cc1 [coelenterazine]
Ca2+-triggered bioluminescence of charged photoprotein, luminometer (obelin (OL_wt)): Obelin and aequorin as well as their mutants were purified and activated with coelenterazine
Ca2+-triggered bioluminescence of charged photoprotein, luminometer (aequorin (AV_wt)): Obelin and aequorin as well as their mutants were purified and activated with coelenterazine
